From the NIST ThermoML archive (doi:10.1016/j.tca.2013.08.031)
Numbers after ± are expanded uncertainties.

Experiment: molar heat capacity at constant volume
Details: Fluid (supercritical or subcritical phases), Vacuum adiabatic calorimetry

Question: Which results are given for CCC(C)O (stereo unspecified) [butan-2-ol]?
Answer: molar heat capacity at constant volume (533.36 K, Mass density=301.19 kg/m3): 394.33 ± 3.7 J/K/mol; molar heat capacity at constant volume (533.36 K, Mass density=347.06 kg/m3): 375.06 ± 3.7 J/K/mol; molar heat capacity at constant volume (533.36 K, Mass density=474.07 kg/m3): 196.42 ± 2.2 J/K/mol; molar heat capacity at constant volume (533.54 K, Mass density=184.89 kg/m3): 510.48 ± 5.7 J/K/mol; molar heat capacity at constant volume (533.54 K, Mass density=198.25 kg/m3): 497.8 ± 5 J/K/mol; molar heat capacity at constant volume (533.54 K, Mass density=245.67 kg/m3): 452.07 ± 4.5 J/K/mol; molar heat capacity at constant volume (533.54 K, Mass density=284.93 kg/m3): 412.49 ± 4.2 J/K/mol; molar heat capacity at constant volume (533.54 K, Mass density=286.65 kg/m3): 422.42 ± 4.2 J/K/mol; molar heat capacity at constant volume (533.54 K, Mass density=301.19 kg/m3): 399.52 ± 3.7 J/K/mol; molar heat capacity at constant volume (533.54 K, Mass density=347.06 kg/m3): 375.06 ± 3.7 J/K/mol; molar heat capacity at constant volume (533.54 K, Mass density=474.07 kg/m3): 196.42 ± 2.2 J/K/mol; molar heat capacity at constant volume (533.68 K, Mass density=286.65 kg/m3): 420.64 ± 4.2 J/K/mol; molar heat capacity at constant volume (533.72 K, Mass density=184.89 kg/m3): 467.11 ± 5.4 J/K/mol; molar heat capacity at constant volume (533.72 K, Mass density=198.25 kg/m3): 506.55 ± 5.1 J/K/mol; molar heat capacity at constant volume (533.72 K, Mass density=245.67 kg/m3): 456.07 ± 4.6 J/K/mol; molar heat capacity at constant volume (533.72 K, Mass density=284.93 kg/m3): 412.86 ± 4.2 J/K/mol; molar heat capacity at constant volume (533.72 K, Mass density=301.19 kg/m3): 403.96 ± 4.4 J/K/mol; molar heat capacity at constant volume (533.72 K, Mass density=347.06 kg/m3): 377.28 ± 3.7 J/K/mol; molar heat capacity at constant volume (533.74 K, Mass density=184.89 kg/m3): 332.58 ± 4.3 J/K/mol; molar heat capacity at constant volume (533.76 K, Mass density=184.89 kg/m3): 294.56 ± 4 J/K/mol; molar heat capacity at constant volume (533.78 K, Mass density=184.89 kg/m3): 303.68 ± 4.1 J/K/mol; molar heat capacity at constant volume (533.8 K, Mass density=184.89 kg/m3): 307.31 ± 4.1 J/K/mol; molar heat capacity at constant volume (533.81 K, Mass density=184.89 kg/m3): 283.59 ± 3.9 J/K/mol; molar heat capacity at constant volume (533.91 K, Mass density=198.25 kg/m3): 508.47 ± 5.3 J/K/mol; molar heat capacity at constant volume (533.91 K, Mass density=245.67 kg/m3): 462 ± 4.7 J/K/mol; molar heat capacity at constant volume (533.91 K, Mass density=284.93 kg/m3): 414.71 ± 4.2 J/K/mol; molar heat capacity at constant volume (533.91 K, Mass density=286.65 kg/m3): 429.46 ± 4.3 J/K/mol; molar heat capacity at constant volume (533.91 K, Mass density=301.19 kg/m3): 408.41 ± 4.4 J/K/mol; molar heat capacity at constant volume (533.91 K, Mass density=347.06 kg/m3): 375.06 ± 3.7 J/K/mol; molar heat capacity at constant volume (534.09 K, Mass density=198.25 kg/m3): 520.78 ± 5.5 J/K/mol; molar heat capacity at constant volume (534.09 K, Mass density=245.67 kg/m3): 460.22 ± 4.7 J/K/mol; molar heat capacity at constant volume (534.09 K, Mass density=279.19 kg/m3): 425.38 ± 4.3 J/K/mol; molar heat capacity at constant volume (534.09 K, Mass density=284.93 kg/m3): 420.86 ± 4.2 J/K/mol; molar heat capacity at constant volume (534.09 K, Mass density=301.19 kg/m3): 412.12 ± 4.4 J/K/mol; molar heat capacity at constant volume (534.09 K, Mass density=347.06 kg/m3): 382.47 ± 4.4 J/K/mol; molar heat capacity at constant volume (534.27 K, Mass density=198.25 kg/m3): 538.57 ± 6.2 J/K/mol; molar heat capacity at constant volume (534.27 K, Mass density=245.67 kg/m3): 465.85 ± 4.7 J/K/mol; molar heat capacity at constant volume (534.27 K, Mass density=279.19 kg/m3): 430.42 ± 4.4 J/K/mol; molar heat capacity at constant volume (534.27 K, Mass density=284.93 kg/m3): 420.42 ± 4.2 J/K/mol; molar heat capacity at constant volume (534.27 K, Mass density=286.65 kg/m3): 436.5 ± 4.4 J/K/mol; molar heat capacity at constant volume (534.27 K, Mass density=347.06 kg/m3): 387.66 ± 4.4 J/K/mol; molar heat capacity at constant volume (534.46 K, Mass density=198.25 kg/m3): 527.82 ± 6 J/K/mol; molar heat capacity at constant volume (534.46 K, Mass density=245.67 kg/m3): 472.82 ± 4.8 J/K/mol; molar heat capacity at constant volume (534.46 K, Mass density=279.19 kg/m3): 435.09 ± 4.4 J/K/mol; molar heat capacity at constant volume (534.46 K, Mass density=284.93 kg/m3): 425.75 ± 4.3 J/K/mol; molar heat capacity at constant volume (534.46 K, Mass density=286.65 kg/m3): 439.47 ± 4.4 J/K/mol; molar heat capacity at constant volume (534.46 K, Mass density=301.19 kg/m3): 418.79 ± 4.4 J/K/mol; molar heat capacity at constant volume (534.46 K, Mass density=347.06 kg/m3): 400.26 ± 4.4 J/K/mol; molar heat capacity at constant volume (534.64 K, Mass density=184.89 kg/m3): 279.36 ± 2.8 J/K/mol; molar heat capacity at constant volume (534.64 K, Mass density=198.25 kg/m3): 354.23 ± 4.5 J/K/mol; molar heat capacity at constant volume (534.64 K, Mass density=245.67 kg/m3): 484.53 ± 4.9 J/K/mol; molar heat capacity at constant volume (534.64 K, Mass density=276.45 kg/m3): 433.39 ± 4.4 J/K/mol; molar heat capacity at constant volume (534.64 K, Mass density=279.19 kg/m3): 437.91 ± 4.4 J/K/mol; molar heat capacity at constant volume (534.64 K, Mass density=284.93 kg/m3): 426.57 ± 4.3 J/K/mol; molar heat capacity at constant volume (534.64 K, Mass density=301.19 kg/m3): 421.75 ± 4.4 J/K/mol; molar heat capacity at constant volume (534.64 K, Mass density=347.06 kg/m3): 353.56 ± 3.7 J/K/mol; molar heat capacity at constant volume (534.64 K, Mass density=403.55 kg/m3): 223.85 ± 2.2 J/K/mol; molar heat capacity at constant volume (534.82 K, Mass density=198.25 kg/m3): 329.47 ± 4.2 J/K/mol; molar heat capacity at constant volume (534.82 K, Mass density=245.67 kg/m3): 491.43 ± 5 J/K/mol; molar heat capacity at constant volume (534.82 K, Mass density=276.45 kg/m3): 435.91 ± 4.5 J/K/mol; molar heat capacity at constant volume (534.82 K, Mass density=279.19 kg/m3): 441.54 ± 4.5 J/K/mol; molar heat capacity at constant volume (534.82 K, Mass density=284.93 kg/m3): 430.13 ± 4.4 J/K/mol; molar heat capacity at constant volume (534.82 K, Mass density=301.19 kg/m3): 429.16 ± 4.4 J/K/mol; molar heat capacity at constant volume (534.82 K, Mass density=347.06 kg/m3): 246.08 ± 3 J/K/mol; molar heat capacity at constant volume (534.82 K, Mass density=403.55 kg/m3): 223.11 ± 2.2 J/K/mol; molar heat capacity at constant volume (535.01 K, Mass density=198.25 kg/m3): 313.31 ± 4.7 J/K/mol; molar heat capacity at constant volume (535.01 K, Mass density=245.67 kg/m3): 498.39 ± 5.2 J/K/mol; molar heat capacity at constant volume (535.01 K, Mass density=276.45 kg/m3): 443.47 ± 4.8 J/K/mol; molar heat capacity at constant volume (535.01 K, Mass density=284.93 kg/m3): 435.02 ± 4.4 J/K/mol; molar heat capacity at constant volume (535.01 K, Mass density=301.19 kg/m3): 431.39 ± 4.4 J/K/mol; molar heat capacity at constant volume (535.01 K, Mass density=347.06 kg/m3): 242.38 ± 3 J/K/mol; molar heat capacity at constant volume (535.01 K, Mass density=403.55 kg/m3): 225.33 ± 2.2 J/K/mol; molar heat capacity at constant volume (535.19 K, Mass density=198.25 kg/m3): 319.91 ± 4.7 J/K/mol; molar heat capacity at constant volume (535.19 K, Mass density=245.67 kg/m3): 508.62 ± 5.1 J/K/mol; molar heat capacity at constant volume (535.19 K, Mass density=276.45 kg/m3): 453.85 ± 5.3 J/K/mol; molar heat capacity at constant volume (535.19 K, Mass density=279.19 kg/m3): 457.11 ± 4.7 J/K/mol; molar heat capacity at constant volume (535.19 K, Mass density=284.93 kg/m3): 440.21 ± 4.6 J/K/mol; molar heat capacity at constant volume (535.19 K, Mass density=301.19 kg/m3): 440.28 ± 4.4 J/K/mol; molar heat capacity at constant volume (535.19 K, Mass density=347.06 kg/m3): 243.12 ± 3 J/K/mol; molar heat capacity at constant volume (535.19 K, Mass density=403.55 kg/m3): 223.11 ± 2.2 J/K/mol; molar heat capacity at constant volume (535.37 K, Mass density=184.89 kg/m3): 286.33 ± 2.9 J/K/mol; molar heat capacity at constant volume (535.37 K, Mass density=198.25 kg/m3): 301.3 ± 3.2 J/K/mol; molar heat capacity at constant volume (535.37 K, Mass density=245.67 kg/m3): 516.03 ± 5.6 J/K/mol; molar heat capacity at constant volume (535.37 K, Mass density=276.45 kg/m3): 460.59 ± 4.8 J/K/mol; molar heat capacity at constant volume (535.37 K, Mass density=279.19 kg/m3): 465.85 ± 4.7 J/K/mol; molar heat capacity at constant volume (535.37 K, Mass density=284.93 kg/m3): 441.02 ± 4.8 J/K/mol; molar heat capacity at constant volume (535.37 K, Mass density=286.65 kg/m3): 467.56 ± 4.9 J/K/mol; molar heat capacity at constant volume (535.37 K, Mass density=301.19 kg/m3): 445.47 ± 5.2 J/K/mol; molar heat capacity at constant volume (535.37 K, Mass density=403.55 kg/m3): 219.4 ± 2.2 J/K/mol; molar heat capacity at constant volume (535.55 K, Mass density=184.89 kg/m3): 286.55 ± 2.9 J/K/mol; molar heat capacity at constant volume (535.55 K, Mass density=245.67 kg/m3): 535.08 ± 5.8 J/K/mol; molar heat capacity at constant volume (535.55 K, Mass density=276.45 kg/m3): 474.75 ± 5 J/K/mol; molar heat capacity at constant volume (535.55 K, Mass density=279.19 kg/m3): 472.08 ± 5.1 J/K/mol; molar heat capacity at constant volume (535.55 K, Mass density=284.93 kg/m3): 454.96 ± 5 J/K/mol; molar heat capacity at constant volume (535.55 K, Mass density=286.65 kg/m3): 474.38 ± 4.9 J/K/mol; molar heat capacity at constant volume (535.55 K, Mass density=301.19 kg/m3): 458.07 ± 5.2 J/K/mol; molar heat capacity at constant volume (535.55 K, Mass density=347.06 kg/m3): 243.12 ± 2.2 J/K/mol; molar heat capacity at constant volume (535.55 K, Mass density=403.55 kg/m3): 220.88 ± 2.2 J/K/mol; molar heat capacity at constant volume (535.74 K, Mass density=198.25 kg/m3): 286.33 ± 3 J/K/mol; molar heat capacity at constant volume (535.74 K, Mass density=245.67 kg/m3): 563.92 ± 6.2 J/K/mol; molar heat capacity at constant volume (535.74 K, Mass density=276.45 kg/m3): 489.72 ± 5.3 J/K/mol; molar heat capacity at constant volume (535.74 K, Mass density=279.19 kg/m3): 488.09 ± 5.1 J/K/mol; molar heat capacity at constant volume (535.74 K, Mass density=284.93 kg/m3): 470.52 ± 5.2 J/K/mol; molar heat capacity at constant volume (535.74 K, Mass density=286.65 kg/m3): 487.57 ± 6.7 J/K/mol; molar heat capacity at constant volume (535.74 K, Mass density=301.19 kg/m3): 477.34 ± 5.2 J/K/mol; molar heat capacity at constant volume (535.74 K, Mass density=347.06 kg/m3): 249.05 ± 2.2 J/K/mol
